From patent EP0535104B1, “HETEROCYCLIC COMPOUNDS AND THEIR PREPARATION AND USE” (NOVO NORDISK A/S, priority 1990, dated 1992)

Tested on: benzodiazepine receptors
Assay: in vivo displacement of radioactive labelled flunitrazepam from benzodiazepine receptors
Settings: dose which causes the specific binding of flunitrazepam to benzodiazepine receptors in a living brain to be reduced to 50% of the control value; test as described in US 4,774,245
Text: The pharmaceutical properties of the compounds of the invention can be illustrated by determining their capability for displacing radioactive labelled flunitrazepam from benzodiazepine receptors.
The displacement activity of the compounds of the invention may be found by determining the ED50 value. The ED50 value represents the dose (mg/kg) of a test substance which causes the specific binding of flunitrazepam to benzodiazepine receptors in a living brain to be reduced to 50% of the control value.
Such an in vivo test is carried out as described in US 4,774,245.

| Compound | ED50 [mg/kg] |
| --- | --- |
| c1ccc2c(c1)c(N1CCOCC1)nc1c(-c3noc(C4CC4)n3)ncn12 [Compound 14, 3-(5-cyclopropyl-1,2,4-oxadiazol-3-yl)-5-morpholino-imidazo[1,5-a]quinazoline] | 1.9 |
| c1ccc2c(c1)c(N1CCOCC1)nc1c(-c3nc(C4CC4)no3)ncn12 [Compound 19, 3-(3-cyclopropyl-1,2,4-oxadiazol-5-yl)-5-morpholino-imidazo[1,5-a]quinazoline] | 1.6 |
| CN(C)c1nc2ccccc2n2cnc(-c3noc(C4CC4)n3)c12.Cl [Compound 4, 3-(5-cyclopropyl-1,2,4-oxadiazol-3-yl)-4-dimethylamino-imidazo[1,5-a]quinoxaline hydrochloride] | 4.1 |
| CN(C)c1nc2c(-c3noc(C4CC4)n3)ncn2c2ccccc12 [Compound 13, 3-(5-cyclopropyl-1,2,4-oxadiazol-3-yl)-5-dimethylamino-imidazo[1,5-a]quinazoline] | 1.5 |
